Drawing on PubChem BioAssay (NCI), this text covers GI50 and TGI for nine compounds.

What all share (experiment): NCI tumour cell line growth inhibition, 48 h
Assay [1] concerns CAKI-1 renal.
Assay [2] concerns EKVX NSCLC.
Assay [3] has as its system K-562 leukemia.
Assay [4] has as its system KM12 colon.
Assay [5] deals with MDA-MB-231 breast.
The test system of assay [6] is NCI/ADR-RES ovarian.
Assay [7] relates to PC-3 prostate.
For assay [8], the system named is SF-295 CNS.
Assay [9] deals with SK-OV-3 ovarian.
The test system of assay [10] is UO-31 renal.

Several values for one entry are separate records, joined by “and”; a condition that tells them apart may be missing. Equal entries are not always repeated.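 Protocol summary: plate cells (96-well), add compound at 5 concentrations, incubate 48 h, interpolate endpoints linearly. Abbreviation: GI50, concentration required for 50% inhibition of growth. TGI: total growth inhibition.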 Where a SMILES comes first, the peptide text is derived from it. The star is where a group is joined. Boc = CC(C)(C)OC(=O)* Where only a bound is given, the exact number is not on record here.

In the case of `O=[P@@]1(c2ccccc2)O[C@H](COCc2ccccc2)[C@@H](OCc2ccccc2)[C@H](OCc2ccccc2)[C@H]1NCc1ccccc1`, the GI50 in [1] was 2.15 µM; in [2], 2.71 µM; in assay [3], 2.86 µM; in [4], 3.21 µM; in [5], 3.22 µM; in assay [6] it was 3.16 µM. Further, the GI50 in assay [7] was 3.03 µM; in assay [8], 2.05 µM; in assay [9], 4.48 µM. For the same compound, the TGI in assay [1] was 8.66 µM; in [2], greater than 100 µM; in assay [3] it was greater than 100 µM; in [4], 47.3 µM; in [5], greater than 100 µM; in assay [6] it was greater than 100 µM. Besides, the TGI was greater than 100 µM in assay [7], 6.68 µM in [8] and greater than 100 µM in [9].
Take `COc1ccc(-c2cc(/C=C/C(=O)c3ccc(OC)c(OC)c3)[nH]n2)cc1`: the GI50 is 1.55 µM in [1]; 1.28 µM in assay [3]; 1.38 µM in [4]; 2 µM in [5]; 3.44 µM in assay [6]; 1.45 µM in assay [7]. Besides, the GI50 was 2.08 µM in assay [8], 5.56 µM in [9] and 1.17 µM in assay [10]. Also, the TGI in assay [1] came out at 3.52 µM; in [3], 10.7 µM; in assay [4] it was 3.11 µM; in assay [5], 6.63 µM; in assay [6], 24.8 µM; in assay [7] it was 3.46 µM. Moreover, the TGI came to 5.37 µM in assay [8], 17.1 µM in assay [9] and 2.44 µM in assay [10].
As for `O=C(/C=C/C=C/c1ccccc1)c1ccccc1`, the TGI was 31.4 µM in [1]; 28.6 µM in [2]; 66.2 µM in [3]; 27.3 µM in assay [4]; 37.8 µM in [5]; 27.1 µM in assay [6]. The TGI is 37.2 µM in assay [7], 70.4 µM in assay [9] and 38.2 µM in [10].
`Nc1c(C(=O)c2ccccc2)cnn1-c1ccc(F)cc1`: the GI50 in assay [1], in assay [3], in assay [4], in assay [5], in assay [6] and in assay [7] was greater than 25 µM throughout. Also, the GI50 in assay [8], in assay [9] and in [10] was greater than 25 µM in each case. In addition, the TGI in [1], in assay [3], in [4], in assay [5], in assay [6] and in assay [7] was greater than 25 µM each time. Moreover, the TGI in assay [8], in assay [9] and in assay [10] was greater than 25 µM throughout.
In the case of `CC(C)=CCc1cc(O)cc2c1OC(C=C(C)C)C1=C2C(=O)C2=C(C1=O)S(=O)(=O)CCN2` (stereo not given), the GI50 is 3.3 µM in assay [2]; 4.68 µM in assay [3]; 5.8 µM in assay [4]; 2.99 µM in assay [5]; greater than 16.7 µM in assay [6]; 5.09 µM in assay [7]. Moreover, the GI50 in [9] is 8.06 µM; in [10] it was 6.23 µM. In addition, the TGI was 9.16 µM in assay [2]; greater than 16.7 µM in assay [3]; greater than 16.7 µM in assay [4]; 8.27 µM in assay [5]; greater than 16.7 µM in assay [6]; greater than 16.7 µM in assay [7]. The TGI in [9] and in assay [10] was greater than 16.7 µM in each case.
With `Cc1ccc2c(C3C(C#N)=C(N)Oc4cc5ccccc5cc43)cc(=O)oc2c1` (stereo not given), the GI50 is 4.44 µM in assay [2]; 0.394 µM in assay [3]; 0.724 µM in assay [4]; 8.2 µM in [5]; 0.833 µM in assay [6]; 1.25 µM in assay [7]. The GI50 was 0.533 µM in assay [8], 2.04 µM in [9] and 7.68 µM in [10]. In addition, the TGI in assay [2], in assay [3], in assay [4], in assay [5], in assay [6] and in assay [7] was greater than 100 µM each time. Moreover, the TGI in assay [8], in [9] and in assay [10] was greater than 100 µM in each case.
`Cc1nc2cc(Nc3nc(Nc4ccc(F)cc4)nc(-c4cccs4)n3)ccc2n1Cc1ccccc1`: the GI50 in [1] was 5.45 µM; in [3], 3.07 µM; in [4], 3.12 µM; in assay [5], 3.48 µM; in [6], 3.66 µM; in assay [7], 2.71 µM. For the same compound, the GI50 was 3.61 µM in assay [8], 33.4 µM in assay [9] and 3.75 µM in [10]. Further, the TGI in assay [1] is greater than 100 µM; in assay [3], 20.6 µM; in assay [4], 16.7 µM; in assay [5] it was 16.2 µM; in assay [6], 32.1 µM; in [7], 52.2 µM. The TGI in [8] is 16.7 µM; in [9] it was greater than 100 µM; in assay [10], 17.5 µM.
As to `C#Cc1nc(Nc2cc(C)[nH]n2)c2ccccc2n1`, the GI50 in assay [1] is 0.442 µM; in [3], 0.349 µM; in assay [4] it was 0.232 µM; in assay [5], 0.203 µM; in [6] it was 0.402 µM; in assay [7] it was 0.317 µM. Also, the GI50 in assay [8] is 0.609 µM; in [9] it was 3.19 µM; in [10] it was 0.222 µM. For the same compound, the TGI in assay [1] was 2.02 µM; in [3], greater than 100 µM; in assay [4], 0.503 µM; in [5] it was 0.424 µM; in assay [6], greater than 100 µM; in assay [7], 1.4 µM. Further, the TGI was 2.26 µM in assay [8], greater than 100 µM in assay [9] and 0.792 µM in assay [10].
Consider `COC(=O)C(C)NC(=O)C(CCSC)NC(=O)C(Cc1ccccc1)NC(=O)OC(C)(C)C` (stereo not drawn) (Boc-Phe-Met-Ala-OMe; configuration not given here), for which the TGI was greater than 100 µM in assay [1]; 91.2 µg/mL in assay [3]; 51.1 µg/mL and > 100 µM in assay [4]; greater than 100 µM in [5]; greater than 100 µM in assay [6]; greater than 100 µM in assay [7]. Moreover, the TGI in assay [8], in assay [9] and in [10] was greater than 100 µM each time. Further, the GI50 was 32.7 µg/mL in assay [3], 22.4 µg/mL in assay [4] and 33.2 µg/mL in assay [5].
